Experimental data as given in ChEMBL document CHEMBL5465560, “Selectivity Literature for EUbOPEN Chemogenomic Library” (2024).

Columns and labels:
[1] = target: T1, Tyrosine-protein kinase Tec (Homo sapiens) (UniProt P42680); experiment: Selectivity interaction (KinomeScan (DiscoverX)) EUB0000666a TEC; settings: at 10 µM
T1 sequence (whole entry): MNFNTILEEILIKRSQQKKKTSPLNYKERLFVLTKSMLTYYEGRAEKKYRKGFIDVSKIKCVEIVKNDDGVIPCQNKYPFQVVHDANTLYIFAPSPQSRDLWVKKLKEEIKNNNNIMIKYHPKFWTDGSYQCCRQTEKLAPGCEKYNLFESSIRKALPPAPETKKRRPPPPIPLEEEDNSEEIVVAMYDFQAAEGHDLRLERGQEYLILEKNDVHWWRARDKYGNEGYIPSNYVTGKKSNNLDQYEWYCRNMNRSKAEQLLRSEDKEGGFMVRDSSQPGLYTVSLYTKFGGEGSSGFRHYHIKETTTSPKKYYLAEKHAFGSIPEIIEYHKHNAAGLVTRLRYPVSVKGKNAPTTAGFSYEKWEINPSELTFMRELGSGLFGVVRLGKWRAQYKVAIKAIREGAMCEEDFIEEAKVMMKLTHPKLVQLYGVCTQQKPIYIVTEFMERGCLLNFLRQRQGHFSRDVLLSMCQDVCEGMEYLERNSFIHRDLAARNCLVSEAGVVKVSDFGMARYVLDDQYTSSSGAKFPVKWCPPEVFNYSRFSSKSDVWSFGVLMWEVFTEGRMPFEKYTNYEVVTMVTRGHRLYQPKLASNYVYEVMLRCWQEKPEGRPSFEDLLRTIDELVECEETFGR

[2] = target: Tyrosine-protein kinase Lyn (Homo sapiens, UniProt P07948); experiment: Selectivity interaction (KinomeScan (DiscoverX)) EUB0000229b LYN; settings: at 10 µM
[3] = target: T2, Scaffold protein ILK (Homo sapiens) (UniProt Q13418); experiment: Selectivity interaction (Kinase panel (KiNativ target engagement assay in Jurkat cells)) EUB0001635a ILK; format: cell-based; settings: Selectivity number of off-targets 0.0, Selectivity number of targets 233.0, Source Knowledge https://www.sciencedirect.com/science/article/pii/S2451945619300674?via%3Dihub, at 1 µM
T2 sequence (whole entry): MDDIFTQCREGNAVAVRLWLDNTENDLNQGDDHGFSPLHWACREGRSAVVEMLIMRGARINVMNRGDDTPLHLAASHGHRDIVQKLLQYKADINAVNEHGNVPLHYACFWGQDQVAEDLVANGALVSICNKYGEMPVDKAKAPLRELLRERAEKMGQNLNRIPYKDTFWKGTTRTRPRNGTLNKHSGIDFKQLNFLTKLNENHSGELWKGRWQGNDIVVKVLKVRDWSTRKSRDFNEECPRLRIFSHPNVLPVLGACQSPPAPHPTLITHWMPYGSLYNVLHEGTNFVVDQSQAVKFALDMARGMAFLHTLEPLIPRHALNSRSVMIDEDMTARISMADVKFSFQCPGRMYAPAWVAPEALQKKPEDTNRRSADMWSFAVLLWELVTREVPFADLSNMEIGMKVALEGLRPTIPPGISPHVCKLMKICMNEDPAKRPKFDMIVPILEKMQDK

[4] = target: T3, Mitogen-activated protein kinase kinase kinase kinase 2 (Homo sapiens) (UniProt Q12851); experiment: Selectivity interaction (ActivX KiNativ screen (kinase selectivity in THP-1 cell lysates)) EUB0000639a MAP4K2; format: subcellular; settings: lysate, at 1 µM
T3 sequence (whole entry): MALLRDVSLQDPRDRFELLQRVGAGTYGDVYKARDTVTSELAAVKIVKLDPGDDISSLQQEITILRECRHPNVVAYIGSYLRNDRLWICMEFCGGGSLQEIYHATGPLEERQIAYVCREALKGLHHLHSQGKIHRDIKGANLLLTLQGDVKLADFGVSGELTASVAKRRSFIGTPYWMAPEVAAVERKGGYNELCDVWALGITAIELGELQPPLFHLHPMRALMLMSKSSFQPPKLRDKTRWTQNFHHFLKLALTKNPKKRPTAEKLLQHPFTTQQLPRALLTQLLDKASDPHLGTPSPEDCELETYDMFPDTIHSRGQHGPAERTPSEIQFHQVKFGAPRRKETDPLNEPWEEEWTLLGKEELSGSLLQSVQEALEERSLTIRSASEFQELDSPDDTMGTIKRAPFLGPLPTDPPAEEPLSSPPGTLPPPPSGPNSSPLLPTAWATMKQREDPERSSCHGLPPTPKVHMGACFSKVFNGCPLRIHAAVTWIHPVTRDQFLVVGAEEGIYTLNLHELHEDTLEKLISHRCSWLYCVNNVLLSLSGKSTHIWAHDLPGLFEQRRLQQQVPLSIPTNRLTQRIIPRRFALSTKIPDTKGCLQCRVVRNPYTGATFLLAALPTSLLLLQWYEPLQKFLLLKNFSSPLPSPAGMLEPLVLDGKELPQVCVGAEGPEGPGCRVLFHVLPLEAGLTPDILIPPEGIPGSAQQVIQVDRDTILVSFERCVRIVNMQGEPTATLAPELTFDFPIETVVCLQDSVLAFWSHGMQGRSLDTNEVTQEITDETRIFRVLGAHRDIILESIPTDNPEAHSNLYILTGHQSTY

[5] = target: Serine/threonine-protein kinase 10 (Homo sapiens) (UniProt O94804); experiment: Selectivity interaction (ActivX KiNativ screen (kinase selectivity in THP-1 cell lysates)) EUB0000639a STK10; format: subcellular; settings: lysate, at 0.04 µM
[6] = target: Cyclin-dependent kinase 11B (Homo sapiens) (UniProt P21127); experiment: Selectivity interaction (KinomeScan (DiscoverX)) EUB0001619a CDK11B; settings: at 1 µM
[7] = target: Fibroblast growth factor receptor 2 (Homo sapiens) (UniProt P21802); experiment: Selectivity interaction (KinomeScan (DiscoverX)) EUB0001619a FGFR2; settings: at 1 µM
[8] = target: 5'-AMP-activated protein kinase catalytic subunit alpha-2 (Homo sapiens) (UniProt P54646); experiment: Selectivity interaction (KinomeScan (DiscoverX)) EUB0000655a PRKAA2; settings: at 10 µM
[9] = system: Angiopoietin-1 receptor (Homo sapiens), Q02763 [R849W]; experiment: (§1) Selectivity interaction (LanthaScreen Eu Kinase Binding Assay) EUB0001632a TEK; settings: at 10 µM
[10] = system: Angiopoietin-1 receptor (Homo sapiens), Q02763 [Y1108F]; experiment: as §1; settings: at 10 µM
[11] = target: Glucocorticoid receptor (Homo sapiens) (UniProt P04150); experiment: Selectivity interaction (Panel of non-epigenetic targets (kinases, GPCRs, ion channels, and transporters, Eurofins) ) EUB0000271b NR3C1; settings: at 1 µM
Glucocorticoid receptor (Homo sapiens), sequence (P04150 whole entry): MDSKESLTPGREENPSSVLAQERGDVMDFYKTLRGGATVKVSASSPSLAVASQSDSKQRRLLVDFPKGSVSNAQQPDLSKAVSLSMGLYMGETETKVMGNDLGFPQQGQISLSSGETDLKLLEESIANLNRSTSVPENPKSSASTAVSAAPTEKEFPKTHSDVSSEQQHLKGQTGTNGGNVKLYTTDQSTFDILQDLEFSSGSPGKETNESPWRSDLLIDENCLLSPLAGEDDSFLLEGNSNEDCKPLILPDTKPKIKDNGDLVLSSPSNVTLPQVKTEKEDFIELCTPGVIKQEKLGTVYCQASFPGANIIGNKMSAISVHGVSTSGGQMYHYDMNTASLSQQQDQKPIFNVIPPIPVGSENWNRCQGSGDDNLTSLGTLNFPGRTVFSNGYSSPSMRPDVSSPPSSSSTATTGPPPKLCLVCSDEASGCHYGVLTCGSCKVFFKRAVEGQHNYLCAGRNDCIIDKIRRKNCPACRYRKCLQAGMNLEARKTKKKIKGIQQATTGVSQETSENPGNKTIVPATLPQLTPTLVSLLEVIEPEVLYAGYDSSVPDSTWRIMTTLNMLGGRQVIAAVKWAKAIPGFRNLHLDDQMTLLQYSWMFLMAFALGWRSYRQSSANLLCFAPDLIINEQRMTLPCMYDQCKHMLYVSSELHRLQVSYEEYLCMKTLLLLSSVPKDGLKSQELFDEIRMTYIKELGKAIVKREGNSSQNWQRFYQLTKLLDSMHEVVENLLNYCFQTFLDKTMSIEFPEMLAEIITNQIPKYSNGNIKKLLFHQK

Fibroblast growth factor receptor 2 (Homo sapiens), sequence (P21802 22-821 limits assumed): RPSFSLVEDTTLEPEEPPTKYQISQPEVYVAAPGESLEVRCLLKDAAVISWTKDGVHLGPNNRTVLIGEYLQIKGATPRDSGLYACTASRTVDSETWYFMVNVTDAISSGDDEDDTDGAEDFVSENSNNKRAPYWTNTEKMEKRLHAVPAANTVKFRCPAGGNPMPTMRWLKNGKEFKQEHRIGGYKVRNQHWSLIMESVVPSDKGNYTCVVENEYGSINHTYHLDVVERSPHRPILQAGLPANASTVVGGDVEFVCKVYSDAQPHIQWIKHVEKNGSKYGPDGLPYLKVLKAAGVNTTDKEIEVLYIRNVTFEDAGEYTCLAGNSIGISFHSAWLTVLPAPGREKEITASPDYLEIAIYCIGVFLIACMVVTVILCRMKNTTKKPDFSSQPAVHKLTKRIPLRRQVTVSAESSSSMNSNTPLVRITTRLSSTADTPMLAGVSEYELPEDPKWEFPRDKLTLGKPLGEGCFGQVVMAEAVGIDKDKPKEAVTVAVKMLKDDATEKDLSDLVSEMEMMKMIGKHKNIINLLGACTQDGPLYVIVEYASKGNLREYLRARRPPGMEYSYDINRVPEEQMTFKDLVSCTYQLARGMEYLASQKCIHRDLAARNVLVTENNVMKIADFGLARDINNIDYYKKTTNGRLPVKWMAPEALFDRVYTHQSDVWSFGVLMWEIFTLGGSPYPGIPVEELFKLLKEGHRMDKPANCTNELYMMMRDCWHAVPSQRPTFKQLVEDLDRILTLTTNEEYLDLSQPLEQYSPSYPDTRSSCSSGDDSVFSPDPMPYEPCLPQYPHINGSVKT
5'-AMP-activated protein kinase catalytic subunit alpha-2 (Homo sapiens), sequence (P54646 whole entry, looked up): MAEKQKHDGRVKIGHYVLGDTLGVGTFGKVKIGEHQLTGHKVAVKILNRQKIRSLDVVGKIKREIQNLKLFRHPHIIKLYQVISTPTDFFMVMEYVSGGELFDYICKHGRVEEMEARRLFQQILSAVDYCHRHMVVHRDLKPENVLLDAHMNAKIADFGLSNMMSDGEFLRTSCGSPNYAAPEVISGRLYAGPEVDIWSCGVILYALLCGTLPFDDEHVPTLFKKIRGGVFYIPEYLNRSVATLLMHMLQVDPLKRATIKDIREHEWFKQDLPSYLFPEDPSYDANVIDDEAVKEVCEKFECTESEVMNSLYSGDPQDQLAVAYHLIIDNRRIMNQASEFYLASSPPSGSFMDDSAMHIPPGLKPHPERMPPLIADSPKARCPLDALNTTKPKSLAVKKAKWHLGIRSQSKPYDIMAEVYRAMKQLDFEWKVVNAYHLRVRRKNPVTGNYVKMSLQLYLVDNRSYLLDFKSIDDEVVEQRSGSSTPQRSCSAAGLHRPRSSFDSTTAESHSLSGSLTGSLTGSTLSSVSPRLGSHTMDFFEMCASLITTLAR
Tyrosine-protein kinase Lyn, sequence (P07948 2-512 limits assumed): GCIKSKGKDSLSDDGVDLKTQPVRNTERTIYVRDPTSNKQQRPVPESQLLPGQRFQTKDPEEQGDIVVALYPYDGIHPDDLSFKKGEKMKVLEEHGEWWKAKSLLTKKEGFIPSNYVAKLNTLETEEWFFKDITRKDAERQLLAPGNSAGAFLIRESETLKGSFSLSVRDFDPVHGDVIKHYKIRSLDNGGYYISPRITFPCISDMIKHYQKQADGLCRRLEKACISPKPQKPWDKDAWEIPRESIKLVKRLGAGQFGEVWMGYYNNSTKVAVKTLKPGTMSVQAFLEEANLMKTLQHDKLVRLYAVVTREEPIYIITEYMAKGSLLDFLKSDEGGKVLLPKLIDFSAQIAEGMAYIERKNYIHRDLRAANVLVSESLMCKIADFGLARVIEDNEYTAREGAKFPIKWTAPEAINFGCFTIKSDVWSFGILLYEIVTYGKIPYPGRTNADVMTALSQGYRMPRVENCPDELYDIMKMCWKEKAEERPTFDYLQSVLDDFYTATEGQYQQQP
Angiopoietin-1 receptor (Homo sapiens), Q02763 [Y1108F], sequence (Q02763 whole entry Y1108F): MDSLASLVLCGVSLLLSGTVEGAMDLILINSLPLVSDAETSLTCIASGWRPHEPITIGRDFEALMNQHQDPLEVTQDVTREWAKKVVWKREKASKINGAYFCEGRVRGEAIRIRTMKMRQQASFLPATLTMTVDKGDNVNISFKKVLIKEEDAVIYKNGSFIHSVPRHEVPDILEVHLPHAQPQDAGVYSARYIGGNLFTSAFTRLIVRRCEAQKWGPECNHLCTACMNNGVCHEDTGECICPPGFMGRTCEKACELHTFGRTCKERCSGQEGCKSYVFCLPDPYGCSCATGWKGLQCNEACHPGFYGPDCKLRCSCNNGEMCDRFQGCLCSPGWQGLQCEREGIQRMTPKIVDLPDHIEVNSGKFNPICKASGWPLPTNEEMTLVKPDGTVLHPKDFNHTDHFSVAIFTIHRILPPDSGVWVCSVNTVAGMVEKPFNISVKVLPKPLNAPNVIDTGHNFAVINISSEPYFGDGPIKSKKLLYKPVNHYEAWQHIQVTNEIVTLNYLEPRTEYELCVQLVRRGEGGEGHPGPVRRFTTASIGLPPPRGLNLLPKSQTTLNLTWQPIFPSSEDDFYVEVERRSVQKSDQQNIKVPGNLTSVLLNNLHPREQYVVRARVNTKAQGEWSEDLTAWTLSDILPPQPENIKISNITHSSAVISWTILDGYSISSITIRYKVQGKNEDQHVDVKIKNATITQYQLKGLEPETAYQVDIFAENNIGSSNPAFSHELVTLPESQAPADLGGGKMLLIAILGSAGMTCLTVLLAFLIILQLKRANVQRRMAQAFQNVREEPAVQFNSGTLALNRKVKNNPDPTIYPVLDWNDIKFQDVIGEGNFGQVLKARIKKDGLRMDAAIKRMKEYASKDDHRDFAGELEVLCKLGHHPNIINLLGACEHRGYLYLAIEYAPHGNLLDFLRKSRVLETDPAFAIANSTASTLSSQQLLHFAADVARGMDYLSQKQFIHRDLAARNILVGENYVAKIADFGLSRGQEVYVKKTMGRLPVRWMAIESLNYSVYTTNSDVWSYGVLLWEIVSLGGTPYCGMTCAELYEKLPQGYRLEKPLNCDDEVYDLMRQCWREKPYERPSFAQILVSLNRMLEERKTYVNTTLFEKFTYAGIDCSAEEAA
Cyclin-dependent kinase 11B (Homo sapiens), sequence (P21127 whole entry): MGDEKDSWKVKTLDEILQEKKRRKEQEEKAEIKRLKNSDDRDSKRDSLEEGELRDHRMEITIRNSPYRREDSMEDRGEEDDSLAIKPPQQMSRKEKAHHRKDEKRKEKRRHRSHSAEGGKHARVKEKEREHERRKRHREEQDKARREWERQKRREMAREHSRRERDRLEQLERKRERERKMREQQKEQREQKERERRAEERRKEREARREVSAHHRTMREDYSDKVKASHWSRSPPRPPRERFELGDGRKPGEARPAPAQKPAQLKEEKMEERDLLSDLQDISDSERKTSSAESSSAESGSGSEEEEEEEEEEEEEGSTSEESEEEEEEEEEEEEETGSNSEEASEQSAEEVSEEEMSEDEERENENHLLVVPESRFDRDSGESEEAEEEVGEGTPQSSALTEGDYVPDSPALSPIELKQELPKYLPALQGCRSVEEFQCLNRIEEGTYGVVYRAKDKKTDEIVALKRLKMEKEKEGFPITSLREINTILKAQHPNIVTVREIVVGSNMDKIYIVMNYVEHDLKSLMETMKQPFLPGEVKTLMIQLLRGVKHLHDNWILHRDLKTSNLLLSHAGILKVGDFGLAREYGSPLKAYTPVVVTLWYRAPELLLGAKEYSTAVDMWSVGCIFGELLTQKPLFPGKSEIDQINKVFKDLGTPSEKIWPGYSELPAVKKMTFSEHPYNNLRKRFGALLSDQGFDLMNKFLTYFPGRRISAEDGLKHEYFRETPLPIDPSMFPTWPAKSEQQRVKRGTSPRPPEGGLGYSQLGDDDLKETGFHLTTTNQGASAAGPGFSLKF
Angiopoietin-1 receptor (Homo sapiens), Q02763 [R849W], sequence (Q02763 whole entry R849W): as the sequence (Q02763 whole entry Y1108F) above, with R849W, F1108Y counted along it

O=C(NOC[C@H](O)CO)c1ccc(F)c(F)c1Nc1ccc(I)cc1F gave a % of control [1] of 100%.
For COc1cc(N(C)c2ccnc3ccc(C(F)(F)F)cc23)cc(OC)c1OC, the % binding [2] was 96%.
C=CC(=O)Nc1ccc(C(=O)Nc2[nH]nc3c2CN(C(=O)N[C@H](CN(C)C)c2ccccc2)C3(C)C)cc1 showed a % of engagement [3] of -20.3%.
In the case of CC[C@@H]1[C@H](F)C(=O)N[C@@H]1COc1nccc2cc(C(N)=O)c(OC)cc12 [ZIMLOVISERTIB], the % of inhibition [4] is reported as -10.5% and the % of inhibition [5] is reported as -97%.
N#Cc1cccc(-c2c[nH]c3ncnc(N4CCOCC4)c23)c1 was tested, and the % of control [6] was 100% and the % of control [7] was 100%.
In the case of CN(C)CCOc1ccc(-c2nc(-c3ccncc3)c(-c3ccc4c(c3)CC/C4=N\O)[nH]2)cc1, the % of control [8] is reported as 94%.
Cn1cc(-n2cnc3c(NCc4nc5cc(Cl)c(Cl)cc5[nH]4)nc(N4CCOCC4)nc32)cn1 was tested, and the % of inhibition [9] was -63.9% and the % of inhibition [10] was -24.4%.
In the case of Cc1cc(C)cc([C@@H]2c3cc(C)ccc3NC(=O)CN2C(=O)c2ccc(Br)s2)c1, the % of inhibition [11] is reported as 15%.
